Measured values: publication PMC6596218, “Anthranilic amide and imidazobenzothiadiazole compounds disrupt Mycobacterium tuberculosis membrane potential” (MedChemComm, 2019)
≈ marks a conversion by molar mass, not a printed value. Entries after “also recorded” stand apart in the source; their conditions may differ. Read-outs that look alike come from different tables or passages of the source.

Assays:
M. tuberculosis H37Rv = assay: Minimum bactericidal concentration at pH 4.5 (MBC4.5), luminescence readout; assay type: cell-based, Mycobacterium tuberculosis; settings: for MBC: Mycobacterium tuberculosis, H37RV, 168 h; for antitubercular activity (by MBC4.5, in words): pH 4.5
HepG2 cells [1] = assay: HepG2 cytotoxicity (CellTiter-Glo, 72 h); assay type: cell-based; settings: Homo sapiens, mean ± standard deviation, replicates in parentheses
[2] = tested on: M. tuberculosis membrane potential; assay: M. tuberculosis membrane potential (DiOC2 red/green fluorescence ratio); assay type: cell-based, Mycobacterium tuberculosis; settings: CCCP positive control
[3] = tested on: non-replicating M. tuberculosis; assay: Non-replicating kill kinetics at pH 5.5 (CFU over 21 days); assay type: cell-based, Mycobacterium tuberculosis; settings: single replicate
HepG2 cells [4] = assay type: cell-based, human; settings: pH 7.4
Description: Measurement of membrane potential in HepG2 human liver cells (ATCC) was adapted from the method published by Huang.[40] Cells were plated at a density of 50 000 cells per well (100 μL) in black-walled 96-well plates and incubated overnight. Culture medium was replaced with the same volume of assay buffer (80 mM NaCl, 75 mM KCl, 25 mM D-glucose, 25 mM HEPES pH 7.4) containing test compounds at indicated concentrations; CCCP and DMSO served as controls. Plates were incubated at 37 °C for 30 min, followed by incubation with 4 μM DiOC2 for 20 min at RT. Cells were washed 4 times with 150 μL assay buffer, and suspended in 100 μL of assay buffer. A Synergy H1 microplate reader (BioTek Instruments) was used to measure fluorescence (488 nm/530 nm and 488 nm/620 nm). Each test compound was evaluated in at least two replicate experiments.

[5] = median, pH 4.5 phosphate citrate buffer, 7 days, 2-log reduction threshold, replicates in parentheses

| SMILES | MBC (M. tuberculosis H37Rv; [5]) | IC50 (HepG2 cells [1]) | other results |
| --- | --- | --- | --- |
| O=C(Nc1ccc(Cl)cc1)[C@@H]1CCCC[C@@H]1NS(=O)(=O)c1ccc(Br)cc1 (relative stereo) [Compound 30, cis-2-(4-bromophenylsulfonamido)-N-(4-chlorophenyl)cyclohexanecarboxamide] | > 200 µM | 76 ± 12 µM |  |
| O=C(Nc1ccc(Cl)cc1)[C@@H]1CCCC[C@H]1NS(=O)(=O)c1ccc(Br)cc1 (relative stereo) [Compound 31, trans-2-(4-bromophenylsulfonamido)-N-(4-chlorophenyl)cyclohexanecarboxamide] | > 200 µM | 67 ± 12 µM |  |
| O=C(Nc1ccc(Cl)cc1Cl)c1ccccc1NS(=O)(=O)c1ccc(Br)cc1 [Compound 1] | 6.3 µM (≈ 3.15 µg/mL) | 6.2 ± 1.1 µM | MBC4.5 (M. tuberculosis H37Rv; [5]): 6.3 (5) μM; disruption of M. tuberculosis membrane potential at pH 5.6 [2]: comparable disruption to CCCP at concentrations one or more orders of magnitude below their MBC4.5; disruption of M. tuberculosis membrane potential at pH 6.8 [2]: depolarized the membrane nearly as strongly as known uncoupler carbonyl cyanide m-chlorophenyl hydrazone (CCCP) |
| O=C(Nc1ccc(Cl)cc1)c1ccccc1NS(=O)(=O)c1ccc(Br)cc1 [Compound 3, 2-(4-bromophenylsulfonamido)-N-(4-chlorophenyl)benzamide] | 50 µM (≈ 23.3 µg/mL) | 11 ± 4.7 µM | log kill within 7 days ([3]; pH 5.5, 7 days): > 3 log; log kill at 14 days ([3]; pH 5.5, 14 days): > 4 log |
| O=C(Nc1ccccc1)c1ccccc1NS(=O)(=O)c1ccc(Br)cc1 [Compound 4, 2-(4-bromophenylsulfonamido)-N-phenylbenzamide] | 100 µM (≈ 43.1 µg/mL) | 30 ± 3.5 µM | disruption of M. tuberculosis membrane potential at pH 5.6 [2]: comparable disruption to CCCP at concentrations one or more orders of magnitude below their MBC4.5; disruption of HepG2 cell membrane potential (HepG2 cells [4]; human, 30 min): decrease in membrane potential in HepG2 cells comparable in magnitude to CCCP at concentrations significantly below the IC50 |
| CCNC(=O)c1ccccc1NS(=O)(=O)c1ccc(Br)cc1 [Compound 5, 2-(4-bromophenylsulfonamido)-N-ethylbenzamide] | > 200 µM | > 100 µM |  |
| NC(=O)c1ccccc1NS(=O)(=O)c1ccc(Br)cc1 [Compound 6, 2-(4-bromophenylsulfonamido)benzamide] | > 200 µM | > 100 µM | disruption of M. tuberculosis membrane potential at pH 5.6 [2]: did not disrupt M. tuberculosis membrane potential; disruption of HepG2 cell membrane potential (HepG2 cells [4]; human, 30 min): did not disrupt membrane potential at concentrations up to 200 μM |
| O=C(Nc1ccc(Cl)cc1Cl)c1ccccc1NS(=O)(=O)c1ccccc1 [Compound 7, N-(2,4-dichlorophenyl)-2-(phenylsulfonamido)benzamide] | > 200 µM | 19 ± 9.2 µM |  |
| Nc1ccccc1C(=O)Nc1ccc(Cl)cc1Cl [Compound 9, 2-amino-N-(2,4-dichlorophenyl)benzamide] | 200 µM (≈ 56.2 µg/mL) | 40 ± 2.3 µM |  |
| CCNc1ccccc1C(=O)Nc1ccc(Cl)cc1Cl [Compound 10, N-(2,4-dichlorophenyl)-2-(ethylamino)benzamide] | > 200 µM | > 100 µM | disruption of M. tuberculosis membrane potential at pH 5.6 [2]: caused membrane hyperpolarization; disruption of HepG2 cell membrane potential (HepG2 cells [4]; human, 30 min): did not disrupt membrane potential at concentrations up to 200 μM |
| O=C(Nc1ccc(Cl)cc1Cl)c1ccccc1NCc1ccc(Br)cc1 [Compound 12, 2-((4-bromobenzyl)amino)-N-(2,4-dichlorophenyl)benzamide] | > 200 µM | > 100 µM |  |
| CC(=O)Nc1ccccc1C(=O)Nc1ccc(Cl)cc1Cl [Compound 13, 2-acetamido-N-(2,4-dichlorophenyl)benzamide] | > 200 µM | > 100 µM |  |
| O=C(Nc1ccccc1C(=O)Nc1ccc(Cl)cc1Cl)c1ccc(Br)cc1 [Compound 14, 2-(4-bromobenzamido)-N-(2,4-dichlorophenyl)benzamide] | > 200 µM | > 100 µM |  |
| CCCCNC(=O)c1ccccc1NS(=O)(=O)c1ccc(Br)cc1 [Compound 16, 2-(4-bromophenylsulfonamido)-N-butylbenzamide] | 100 µM (≈ 41.1 µg/mL) | 59 ± 0.71 µM | antitubercular activity (by MBC4.5, in words) (M. tuberculosis H37Rv): showed measurable anti-tubercular activity; disruption of M. tuberculosis membrane potential at pH 5.6 [2]: disruption at significantly lower concentrations relative to pH 6.8; also recorded: comparable disruption to CCCP at concentrations one or more orders of magnitude below their MBC4.5; also recorded: larger, more consistent degree of separation from DMSO than CCCP; disruption of HepG2 cell membrane potential (HepG2 cells [4]; human, 30 min): decrease in membrane potential in HepG2 cells comparable in magnitude to CCCP at concentrations significantly below the IC50 |
| O=C(NC1CC1)c1ccccc1NS(=O)(=O)c1ccc(Br)cc1 [Compound 17, 2-(4-bromophenylsulfonamido)-N-cyclopropylbenzamide] | > 200 µM | > 100 µM |  |
| C#CCNC(=O)c1ccccc1NS(=O)(=O)c1ccc(Br)cc1 [Compound 18, 2-(4-bromophenylsulfonamido)-N-(pro-2-yn-1-yl)benzamide] | > 200 µM | 83 ± 12 µM |  |
| O=C(NC1CCCCCC1)c1ccccc1NS(=O)(=O)c1ccc(Br)cc1 [Compound 19, 2-(4-bromophenylsulfonamido)-N-cycloheptylbenzamide] | > 200 µM | 24 ± 6.4 µM |  |

| SMILES | MBC (M. tuberculosis H37Rv; [5]) | IC50 (HepG2 cells [1]) | other results |
| --- | --- | --- | --- |
| O=C(NC1C2CC3CC(C2)CC1C3)c1ccccc1NS(=O)(=O)c1ccc(Br)cc1 (stereo not shown) [Compound 20, N-(adamantan-2-yl)-2-(4-bromophenylsulfonamido)benzamide] | > 200 µM | 20 ± 4.2 µM |  |
| O=C(c1ccccc1NS(=O)(=O)c1ccc(Br)cc1)N1CCCCC1 [Compound 21, 4-bromo-N-(2-(piperidine-1-carbonyl)phenyl)benzenesulfonamide] | > 200 µM | > 100 µM |  |
| O=C(c1ccccc1NS(=O)(=O)c1ccc(Br)cc1)N1CCOCC1 [Compound 22, 4-bromo-N-(2-(morpholine-4-carbonyl)phenyl)benzenesulfonamide] | > 200 µM | > 100 µM |  |
| CN1CCN(C(=O)c2ccccc2NS(=O)(=O)c2ccc(Br)cc2)CC1 [Compound 23, 4-bromo-N-(2-(4-methylpiperizine-1-carbonyl)phenyl)benzenesulfonamide] | > 200 µM | > 100 µM |  |
| CN(C(=O)c1ccccc1NS(=O)(=O)c1ccc(Br)cc1)c1ccc(Cl)cc1Cl [Compound 25, 2-(4-bromophenylsulfonamido)-N-(2,4-dichlorophenyl)-N-methylbenzamide] | > 200 µM | 60 ± 9.9 µM | antitubercular activity (by MBC4.5, in words) (M. tuberculosis H37Rv): loss of antitubercular activity; disruption of M. tuberculosis membrane potential at pH 5.6 [2]: maintained its disruption of M. tuberculosis membrane potential at pH 5.6; disruption of M. tuberculosis membrane potential at pH 6.8 [2]: showed some capacity to depolarize the membrane, but the effect was at much higher concentrations; disruption of HepG2 cell membrane potential (HepG2 cells [4]; human, 30 min): decrease in membrane potential in HepG2 cells comparable in magnitude to CCCP at concentrations significantly below the IC50 |
| O=C(Nc1ccc(Cl)cc1Cl)c1cccc(NS(=O)(=O)c2ccc(Br)cc2)c1 [Compound 26, 3-(4-bromophenylsulfonamido)-N-(2,4-dichlorophenyl)benzamide] | > 200 µM | 34 ± 3.5 µM | antitubercular activity (by MBC4.5, in words) (M. tuberculosis H37Rv): loss of antitubercular activity |
| O=C(Nc1ccc(Cl)cc1Cl)c1ccccc1S(=O)(=O)c1ccc(Br)cc1 [Compound 27, 2-((4-bromophenyl)sulfonyl)-N-(2,4-dichlorophenyl)benzamide] | > 200 µM | 89 ± 18 µM | antitubercular activity (by MBC4.5, in words) (M. tuberculosis H37Rv): loss of antitubercular activity |
| O=S(=O)(Nc1ccccc1CNc1ccc(Cl)cc1Cl)c1ccc(Br)cc1 [Compound 28, 4-bromo-N-(2-(((2,4-dichlorophenyl)amino)methyl)phenyl)benzenesulfonamide] | > 200 µM | 33 µM |  |
| O=S(=O)(Nc1ccccc1COc1ccc(Cl)cc1Cl)c1ccc(Br)cc1 [Compound 29, 4-bromo-N-(2-((2,4-dichlorophenoxy)methyl)phenyl)benzenesulfonamide] | > 200 µM | 24 ± 6.4 µM |  |
| O=C(Nc1ccc(Cl)cc1)c1ncccc1NS(=O)(=O)c1ccc(Br)cc1 [Compound 32, 3-(4-bromophenylsulfonamido)-N-(4-chlorophenyl)picolinamide] | > 200 µM | 5 ± 1.4 µM |  |
| O=C(Nc1ccc(Cl)cc1)c1cccnc1NS(=O)(=O)c1ccc(Br)cc1 [Compound 33, 2-(4-bromophenylsulfonamido)-N-(4-chlorophenyl)nicotinamide] | > 200 µM | 20 ± 5.7 µM |  |
| FC(F)(F)c1nc2ccc3nsnc3c2[nH]1 [Compound 34] | 75 µM (≈ 18.3 µg/mL) | 70 ± 11 µM |  |
| CCn1cnc2c3nsnc3ccc21 [Compound 35] | 75 µM (≈ 15.3 µg/mL) | > 100 µM |  |
| Nc1ccc2[nH]c(C3CCCCC3)nc2c1 [Compound 36] | 100 µM (≈ 21.5 µg/mL) | > 100 µM |  |
| Cc1nnc(Sc2ccc3nsnc3c2[N+](=O)[O-])s1 [Compound 37] | 19 µM (≈ 5.92 µg/mL) | 5.6 ± 3.2 µM | disruption of HepG2 cell membrane potential (HepG2 cells [4]): drop in membrane potential |
| O=[N+]([O-])c1c(Sc2ccccn2)ccc2nsnc12 [Compound 38] | 25 µM (≈ 7.26 µg/mL) | 4.8 ± 0.86 µM | disruption of HepG2 cell membrane potential (HepG2 cells [4]): drop in membrane potential |
